Test results: patent US9409905B2, “Antibacterial compounds and methods for use” (PTC THERAPEUTICS, INC., priority 2011, dated 2016)
Converted amounts (≈) assume the structure as drawn.

Legend:
E. coli 25922 = experiment: Antibacterial activity, microbroth dilution MIC (Table 1); assay type: cell-based, Escherichia coli; settings: Escherichia coli; microbroth dilution; control Gram-negative E. coli 25922 strain; read-out: MIC, 25922
In short: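 Potency is reported as minimum inhibitory concentration in μg/mL, determined by broth microdilution as the lowest level of compound that stops growth visible to the eye.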

[1] = system: Acinetobacter baumannii (A. baumannii) BAA747; experiment: Antibacterial activity, MIC (Table 4); assay type: cell-based; settings: A. baumannii BAA747, read-out: MIC, BAA747
From the text: (§1) The antibacterial activity from a microbroth dilution method may be presented as the minimum inhibitory concentration (MIC in μg/mL). The MIC value is the lowest concentration of drug which prevents macroscopically visible growth under test conditions.
(§2) Antibacterial activity of test compounds against the Gram-negative Acinetobacter baumannii (A. baumannii) BAA747 and Klebsiella pneumoniae (K. pneumoniae) 35657 bacterium and the resistant A. baumannii MXX2240 and K. pneumoniae MXX1232 strains are shown in Table 4. The MMX strains are multi-drug resistant clinical isolates.

[2] = system: Klebsiella pneumoniae (K. pneumoniae) 35657; experiment: Antibacterial activity, MIC (Table 4); assay type: cell-based; settings: K. pneumoniae 35657, read-out: MIC, 35657
From the text: as §1, §2

[3] = system: Escherichia coli (E. coli) BAS849; experiment: Antibacterial activity, microbroth dilution MIC (Table 1); assay type: cell-based; settings: microbroth dilution, super sensitive Gram-negative E. coli BAS849, read-out: MIC, BAS849
In short: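 Values are MICs (μg/mL): the smallest drug amount at which macroscopically visible bacterial growth is absent under assay conditions, from a microdilution method in broth.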

[4] = system: Staphylococcus aureus (S. aureus) 29213; experiment: as above; assay type: cell-based; settings: microbroth dilution, Gram-positive S. aureus 29213, read-out: MIC, 29213
In short: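 Each strain is exposed to test compound in a microbroth dilution series; visible growth is scored macroscopically, and the lowest growth-free concentration is recorded as MIC in μg/mL.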

E. coli LZ3111 = experiment: Antibacterial activity, MIC, quinolone resistant strain (Table 2); assay type: cell-based; settings: Escherichia coli, LZ3111, read-out: MIC LZ3111
In short: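 Growth inhibition assessed by serial drug dilution in broth; endpoint was absence of macroscopically visible growth, reported as MIC, μg/mL.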

[5] = system: Pseudomonas aeruginosa (P. aeruginosa) 27853; experiment: Antibacterial activity, MIC (Table 5); assay type: cell-based; settings: P. aeruginosa 27853, read-out: MIC, 27853
From the text: as §1
Antibacterial activity of test compounds against the Gram-negative bacterium Pseudomonas aeruginosa (P. aeruginosa) 27853 is shown in Table 5.

A. baumannii MXX2240 = experiment: Antibacterial activity, MIC, resistant strain (Table 4); assay type: cell-based; settings: Acinetobacter baumannii, MXX2240; resistant A. baumannii MMX2240, multi-drug resistant clinical isolate; read-out: MIC, MMX2240
From the text: as §1, §2

K. pneumoniae MXX1232 = experiment: as above; assay type: cell-based; settings: Klebsiella pneumoniae, MXX1232; resistant K. pneumoniae MMX1232, multi-drug resistant clinical isolate; read-out: MIC, MMX1232
From the text: as §1, §2

| Structure (SMILES) | MIC (E. coli 25922) [µg/mL] | MIC [1] [µg/mL] | MIC [2] [µg/mL] | MIC [3] [µg/mL] | MIC [4] [µg/mL] | MIC (E. coli LZ3111) [µg/mL] | MIC [5] [µg/mL] | MIC (A. baumannii MXX2240) [µg/mL] | MIC (K. pneumoniae MXX1232) [µg/mL] |
| --- | --- | --- | --- | --- | --- | --- | --- | --- | --- |
| CCc1c(-c2ccc3c(ccn3C)c2O)[nH]c(=O)c(C(=O)O)c1O [Cpd 374, 5-ethyl-4-hydroxy-6-(4-hydroxy-1-methyl-1H-indol-5-yl)-2-oxo-1,2-dihydropyridine-3-carboxylic acid] | 12.5 to 150 (≈ 38.1 to 457 µM) | 12.5 to 150 (≈ 38.1 to 457 µM) | 12.5 to 150 (≈ 38.1 to 457 µM) | 12.5 to 150 (≈ 38.1 to 457 µM) | 12.5 to 150 (≈ 38.1 to 457 µM) | 12.5 to 150 (≈ 38.1 to 457 µM) | 12.5 to 150 (≈ 38.1 to 457 µM) | 12.5 to 150 (≈ 38.1 to 457 µM) | 12.5 to 150 (≈ 38.1 to 457 µM) |
| CCc1ccc2cc(-c3[nH]c(=O)c(C(=O)O)c(O)c3C)[nH]c2c1 [Cpd 387, 6-(6-ethyl-1H-indol-2-yl)-4-hydroxy-5-methyl-2-oxo-1,2-dihydropyridine-3-carboxylic acid] | 12.5 to 150 (≈ 40 to 480 µM) | 12.5 to 150 (≈ 40 to 480 µM) | 12.5 to 150 (≈ 40 to 480 µM) | 1 to 3.5 (≈ 3.2 to 11.2 µM) | 12.5 to 150 (≈ 40 to 480 µM) | 12.5 to 150 (≈ 40 to 480 µM) | 12.5 to 150 (≈ 40 to 480 µM) | 12.5 to 150 (≈ 40 to 480 µM) | 12.5 to 150 (≈ 40 to 480 µM) |
| CCc1c(-c2cc3c(N4CCCC4)nc(C)cn3n2)[nH]c(=O)c(C(=O)O)c1O [Cpd 402, 5-ethyl-4-hydroxy-6-(6-methyl-4-(pyrrolidin-1-yl)pyrazolo[1,5-a]pyrazin-2-yl)-2-oxo-1,2-dihydropyridine-3-carboxylic acid] | 12.5 to 150 (≈ 32.6 to 391 µM) | 12.5 to 150 (≈ 32.6 to 391 µM) | 12.5 to 150 (≈ 32.6 to 391 µM) | 12.5 to 150 (≈ 32.6 to 391 µM) | 3.5 to 12.5 (≈ 9.13 to 32.6 µM) | 12.5 to 150 (≈ 32.6 to 391 µM) | 12.5 to 150 (≈ 32.6 to 391 µM) | 12.5 to 150 (≈ 32.6 to 391 µM) | 12.5 to 150 (≈ 32.6 to 391 µM) |
| CCc1cc(C(=O)O)c(=O)[nH]c1-c1ccc2c(c1)cc(CN(CC)CC)n2C [Cpd 123, 6-(2-((diethylamino)methyl)-1-methyl-1H-indol-5-yl)-5-ethyl-2-oxo-1,2-dihydropyridine-3-carboxylic acid] | < 1 | 1 to 3.5 (≈ 2.62 to 9.17 µM) | < 1 | < 1 | 12.5 to 150 (≈ 32.8 to 393 µM) | 12.5 to 150 (≈ 32.8 to 393 µM) | 12.5 to 150 (≈ 32.8 to 393 µM) | 12.5 to 150 (≈ 32.8 to 393 µM) | 12.5 to 150 (≈ 32.8 to 393 µM) |
| CCc1cc(C(=O)O)c(=O)[nH]c1-c1ccc2c(c1)cc1n2CCC1N1CCCCC1 (stereo not drawn) [Cpd 154, 5-ethyl-2-oxo-6-(1-(piperidin-1-yl)-2,3-dihydro-1H-pyrrolo[1,2-a]indol-7-yl)-1,2-dihydropyridine-3-carboxylic acid] | 1 to 3.5 (≈ 2.47 to 8.63 µM) | 3.5 to 12.5 (≈ 8.63 to 30.8 µM) | 1 to 3.5 (≈ 2.47 to 8.63 µM) | < 1 | 12.5 to 150 (≈ 30.8 to 370 µM) | 12.5 to 150 (≈ 30.8 to 370 µM) | 12.5 to 150 (≈ 30.8 to 370 µM) | 12.5 to 150 (≈ 30.8 to 370 µM) | 12.5 to 150 (≈ 30.8 to 370 µM) |
| CCc1c(-c2ccc3c(ccn3-c3ccc(C(F)(F)F)cc3)c2)[nH]c(=O)c(C(=O)O)c1O [Cpd 437, 5-ethyl-4-hydroxy-2-oxo-6-(1-(4-(trifluoromethyl)phenyl)-1H-indol-5-yl)-1,2-dihydropyridine-3-carboxylic acid] | 12.5 to 150 (≈ 28.3 to 339 µM) | 12.5 to 150 (≈ 28.3 to 339 µM) | 12.5 to 150 (≈ 28.3 to 339 µM) | < 1 | 3.5 to 12.5 (≈ 7.91 to 28.3 µM) | 12.5 to 150 (≈ 28.3 to 339 µM) | 12.5 to 150 (≈ 28.3 to 339 µM) | 12.5 to 150 (≈ 28.3 to 339 µM) | 12.5 to 150 (≈ 28.3 to 339 µM) |
| Cc1c(-c2ccc3c(c2)cc(CNCCN(C)C)n3C)[nH]c(=O)c(C(=O)O)c1O [Cpd 345, 6-(2-((2-(dimethylamino)ethylamino)methyl)-1-methyl-1H-indol-5-yl)-4-hydroxy-5-methyl-2-oxo-1,2-dihydropyridine-3-carboxylic acid] | 12.5 to 150 (≈ 31.4 to 376 µM) | 12.5 to 150 (≈ 31.4 to 376 µM) | 12.5 to 150 (≈ 31.4 to 376 µM) | 3.5 to 12.5 (≈ 8.78 to 31.4 µM) | 12.5 to 150 (≈ 31.4 to 376 µM) | 1 to 3.5 (≈ 2.51 to 8.78 µM) | 12.5 to 150 (≈ 31.4 to 376 µM) | 12.5 to 150 (≈ 31.4 to 376 µM) | 12.5 to 150 (≈ 31.4 to 376 µM) |
| Cc1cc2[nH]c(-c3[nH]c(=O)c(C(=O)O)c(O)c3C)cc2cc1F [Cpd 388, 6-(5-fluoro-6-methyl-1H-indol-2-yl)-4-hydroxy-5-methyl-2-oxo-1,2-dihydropyridine-3-carboxylic acid] | 12.5 to 150 (≈ 39.5 to 474 µM) | 12.5 to 150 (≈ 39.5 to 474 µM) | 12.5 to 150 (≈ 39.5 to 474 µM) | 3.5 to 12.5 (≈ 11.1 to 39.5 µM) | 12.5 to 150 (≈ 39.5 to 474 µM) | 12.5 to 150 (≈ 39.5 to 474 µM) | 12.5 to 150 (≈ 39.5 to 474 µM) | 12.5 to 150 (≈ 39.5 to 474 µM) | 12.5 to 150 (≈ 39.5 to 474 µM) |
| Cc1c(-c2ccc3cn(C)nc3c2)[nH]c(=O)c(C(=O)O)c1O [Cpd 397, 4-hydroxy-5-methyl-6-(2-methyl-2H-indazol-6-yl)-2-oxo-1,2-dihydropyridine-3-carboxylic acid] | 12.5 to 150 (≈ 41.8 to 501 µM) | 12.5 to 150 (≈ 41.8 to 501 µM) | 12.5 to 150 (≈ 41.8 to 501 µM) | 12.5 to 150 (≈ 41.8 to 501 µM) | 12.5 to 150 (≈ 41.8 to 501 µM) | 1 to 3.5 (≈ 3.34 to 11.7 µM) | 12.5 to 150 (≈ 41.8 to 501 µM) | 3.5 to 12.5 (≈ 11.7 to 41.8 µM) | 12.5 to 150 (≈ 41.8 to 501 µM) |
